According to the supplement of paper PMC10307832:

Assays:
BI-D1870 + Trametinib = compound: CC(C)CCN1c2nc(Nc3cc(F)c(O)c(F)c3)ncc2N(C)C(=O)C1C [BI-D1870] + CC(=O)Nc1cccc(-n2c(=O)n(C3CC3)c(=O)c3c(Nc4ccc(I)cc4F)n(C)c(=O)c(C)c32)c1 [Trametinib] (partner 0.02 µM); assay: relative viability (nuclei count vs DMSO), 5 days (fraction); higher = more cells survive
Summary of the method: (§1)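 Cells from lung cancer lines were seeded into 1536-well plates and, one day later, dosed by pin tool. Treatments were either a single drug or a fixed dose of an anchor drug with five library-drug doses (not always all listed) in √10 steps. After 5 days, nuclei were stained in a one-step fixation (final 0.05% Triton X-100, 1% formaldehyde, 1 ug/ml Hoechst) and counted on 4× images, and relative viability is the treated-to-vehicle nuclei ratio, as the median of duplicate plates.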

Zebularine + Dasatinib = compound: O=c1ncccn1[C@@H]1O[C@H](CO)[C@@H](O)[C@H]1O [Zebularine] + Cc1nc(Nc2ncc(C(=O)Nc3c(C)cccc3Cl)s2)cc(N2CCN(CCO)CC2)n1 [Dasatinib] (partner 0.075 µM); assay: as above
Summary of the method: as §1

| Cell Line | relative viability (BI-D1870 + Trametinib; first compound 0.04 µM) | relative viability (BI-D1870 + Trametinib; first compound 0.1265 µM) | relative viability (BI-D1870 + Trametinib; first compound 0.4 µM) | relative viability (BI-D1870 + Trametinib; first compound 1.265 µM) | relative viability (BI-D1870 + Trametinib; first compound 4 µM) | relative viability (Zebularine + Dasatinib; first compound 1 µM) | relative viability (Zebularine + Dasatinib; first compound 3.162 µM) | relative viability (Zebularine + Dasatinib; first compound 10 µM) | relative viability (Zebularine + Dasatinib; first compound 31.62 µM) | relative viability (Zebularine + Dasatinib; first compound 100 µM) |
| --- | --- | --- | --- | --- | --- | --- | --- | --- | --- | --- |
| HCC-44 | 1.04 | 1.06 | 1.07 | 1.04 | 1.2 | – | – | – | – | – |
| HCC-827 | 0.551 | 0.495 | 0.463 | 0.456 | 0.432 | 0.3 | 0.292 | 0.249 | 0.322 | 0.238 |
| NCI-H1623 | – | – | – | – | – | 0.632 | 0.47 | 0.459 | 0.53 | 0.386 |
| NCI-H2347 | 0.302 | 0.26 | 0.273 | 0.296 | 0.322 | 0.309 | 0.322 | 0.302 | 0.227 | 0.254 |
| PC-14 | 0.864 | 0.534 | 0.788 | 0.498 | 0.243 | 0.301 | 0.198 | 0.224 | 0.0811 | 0.0854 |
| NCI-H1651 | 0.874 | 0.881 | 0.81 | 0.936 | 0.828 | 0.399 | 0.359 | 0.343 | 0.53 | 0.247 |
| HARA | 0.613 | 0.548 | 0.702 | 0.876 | 1.04 | 0.219 | – | – | 0.35 | 0.274 |
| NCI-H1650 | 0.705 | 0.551 | 0.573 | 0.64 | 0.552 | 0.384 | 0.366 | 0.324 | 0.342 | 0.312 |
| NCI-H1395 | 1.09 | 0.972 | 1.01 | 1.17 | 0.978 | 0.443 | 0.37 | 0.408 | 0.341 | 0.36 |
| LU99A | 0.513 | 0.436 | 0.519 | 0.511 | 0.533 | 0.722 | 0.523 | 0.44 | 0.325 | 0.116 |
| NCI-H1355 | 0.455 | 0.361 | 0.448 | 0.418 | 0.454 | 0.757 | 0.746 | 0.525 | 0.617 | 0.458 |
| HCC-78 | 0.526 | 0.655 | 0.675 | 1.03 | 0.569 | 0.385 | 0.428 | 0.22 | 0.37 | 0.278 |
| NCI-H1563 | – | – | – | – | – | 0.498 | 0.528 | 0.527 | 0.406 | 0.466 |
| HCC-15 | 0.376 | 0.35 | 0.371 | 0.444 | 0.392 | 0.759 | 0.577 | 0.494 | 0.486 | 0.27 |
| EKVX | 0.336 | 0.281 | 0.339 | 0.401 | 0.445 | 0.577 | 0.498 | – | 0.575 | 0.573 |
| NCI-H2087 | 0.2 | 0.158 | 0.189 | 0.246 | 0.199 | 1.14 | 0.786 | 0.426 | 0.972 | 0.631 |
| LK-2 | 0.864 | 0.8 | 0.786 | 0.97 | 0.649 | 0.242 | 0.336 | 0.287 | 0.256 | 0.228 |
| NCI-H1437 | 0.556 | 0.475 | 0.494 | 0.568 | 0.398 | 0.521 | 0.462 | 0.333 | 0.531 | 0.459 |

| Cell Line | relative viability (BI-D1870 + Trametinib; first compound 0.04 µM) | relative viability (BI-D1870 + Trametinib; first compound 0.1265 µM) | relative viability (BI-D1870 + Trametinib; first compound 0.4 µM) | relative viability (BI-D1870 + Trametinib; first compound 1.265 µM) | relative viability (BI-D1870 + Trametinib; first compound 4 µM) | relative viability (Zebularine + Dasatinib; first compound 1 µM) | relative viability (Zebularine + Dasatinib; first compound 3.162 µM) | relative viability (Zebularine + Dasatinib; first compound 10 µM) | relative viability (Zebularine + Dasatinib; first compound 31.62 µM) | relative viability (Zebularine + Dasatinib; first compound 100 µM) |
| --- | --- | --- | --- | --- | --- | --- | --- | --- | --- | --- |
| COR-L23 | 0.75 | 0.536 | 0.589 | 0.622 | 0.572 | 0.616 | 0.442 | 0.373 | 0.239 | 0.211 |
| ABC-1 | – | – | – | – | – | 0.637 | 0.352 | 0.454 | 0.435 | 0.351 |
| NCI-H522 | 0.69 | 0.764 | 0.722 | 0.836 | 0.776 | 0.859 | 0.886 | 0.473 | 0.933 | 0.938 |
| NCI-H838 | 0.597 | 0.444 | 0.536 | 0.667 | 0.523 | 0.318 | 0.238 | 0.239 | 0.268 | 0.278 |
| SW 900 | 0.883 | 0.83 | 0.858 | 0.762 | 0.984 | 0.647 | 0.498 | 0.328 | 0.926 | 0.484 |
| A-427 | 0.763 | 0.678 | 0.755 | 0.833 | 0.814 | 0.841 | 0.664 | 0.434 | 0.535 | 0.2 |
| NCI-H1792 | 0.489 | 0.349 | 0.437 | 0.567 | 0.372 | 0.71 | 0.713 | 0.262 | 0.421 | 0.414 |
| LCLC-97TM1 | 0.214 | 0.181 | 0.174 | 0.221 | 0.146 | 0.868 | 0.844 | 0.509 | 0.577 | 0.315 |
| LCLC-103H | 0.692 | 0.616 | 0.653 | 0.7 | 0.63 | 0.485 | 0.479 | 0.251 | 0.475 | 0.44 |
| PC-3 [JPC-3] | 0.751 | 0.701 | 0.632 | 0.762 | 0.576 | 1.05 | 1.05 | 0.61 | 0.979 | 0.79 |
| BEN | 1.01 | 0.896 | 1.05 | 1.04 | 0.963 | 0.32 | 0.303 | 0.253 | 0.223 | 0.146 |
| NCI-H1666 | 0.847 | 0.798 | 0.801 | 0.882 | 0.878 | 0.828 | 0.817 | 0.714 | 0.993 | 0.689 |
| LC-2-ad | 0.897 | 0.848 | 0.957 | 0.956 | 0.882 | 0.731 | 0.494 | 0.226 | 0.491 | 0.34 |
| SK-LU-1 | 0.553 | 0.403 | 0.372 | 0.515 | 0.408 | 0.168 | 0.184 | 0.162 | 0.172 | 0.144 |
| ChaGo-K-1 | 0.899 | 0.753 | 0.874 | 0.909 | 0.856 | 0.619 | 0.557 | 0.312 | 0.269 | 0.183 |
| COR-L 105 | 0.428 | 0.409 | 0.487 | 0.419 | 0.458 | 0.33 | 0.294 | 0.33 | 0.367 | 0.369 |
| NCI-H1975 | 0.373 | 0.285 | 0.339 | 0.365 | 0.289 | 0.328 | 0.408 | 0.253 | 0.247 | 0.173 |
